Assay results as given in patent US9809598B2 (Merck Patent GmbH, priority 2014, dated 2017).
≈ marks a conversion by molar mass, not a printed value.

Assays:
[1] = target: T1, PARP-1 (Homo sapiens, UniProt P09874); experiment: PARP-1 autoparsylation assay (HTRF); type: biochemical; settings: His-tagged Parp-1, autoparsylation HTRF
T1 construct: purchased Enzo Life Sciences GmbH, Lörrach, Germany
In short: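 HTRF emission ratio reports biotin-ADP-ribose self-transfer onto His-tagged PARP-1, with biotinylated NAD/NAD as co-substrate, sensed via cryptate anti-His and Xlent-streptavidin.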

[2] = target: T2, TNKS1 (Homo sapiens, UniProt O95271); experiment: TNKS1 activity ELISA (autoparsylation assay); type: biochemical; settings: GST-tagged Tnks-1 (1023-1327 aa)
T2 construct: GST-tagged Tnks-1 (1023-1327 aa, prepared in-house); made in house
T2 sequence (O95271 1023-1327): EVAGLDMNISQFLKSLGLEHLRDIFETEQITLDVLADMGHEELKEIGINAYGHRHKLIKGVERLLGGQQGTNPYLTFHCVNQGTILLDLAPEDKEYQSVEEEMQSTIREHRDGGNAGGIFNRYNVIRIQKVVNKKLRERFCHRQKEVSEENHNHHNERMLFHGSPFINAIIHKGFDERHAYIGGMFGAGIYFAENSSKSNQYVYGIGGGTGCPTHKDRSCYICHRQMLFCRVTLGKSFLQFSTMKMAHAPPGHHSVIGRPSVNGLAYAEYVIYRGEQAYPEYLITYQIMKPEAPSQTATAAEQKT
In short: (§1)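 Autoparsylation ELISA: biotinylated NAD serves as co-substrate for plate-bound GST-TNKS1/TNKS2, incubated with test compounds. Readout is HRP luminescence after streptavidin-HRP binding, referenced to the no-inhibitor reaction, from which IC50 values are derived.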

[3] = target: T3, TNKS2 (Homo sapiens, UniProt Q9H2K2); experiment: TNKS2 activity ELISA (autoparsylation assay); type: biochemical; settings: GST-tagged Tnks-2 (873-1166 aa); read-out: IC50 [M] TNKS2 ELISA
T3 construct: GST-tagged Tnks-2 (873-1166 aa, prepared in-house); made in house
T3 sequence (Q9H2K2 873-1166): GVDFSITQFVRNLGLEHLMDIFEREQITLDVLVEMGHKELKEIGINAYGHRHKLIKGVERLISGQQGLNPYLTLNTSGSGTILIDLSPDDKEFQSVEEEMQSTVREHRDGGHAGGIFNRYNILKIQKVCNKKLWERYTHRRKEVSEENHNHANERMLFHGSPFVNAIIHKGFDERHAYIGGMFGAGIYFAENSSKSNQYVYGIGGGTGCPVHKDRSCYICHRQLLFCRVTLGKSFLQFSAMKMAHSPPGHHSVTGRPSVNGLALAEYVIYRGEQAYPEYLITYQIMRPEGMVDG
In short: as §1

[4] = Solubility pH 7.4; type: physicochemical; settings: pH 7.4, aqueous buffer
[5] = Microsomal stability (intrinsic clearance), mouse liver microsomes; type: in vitro ADME; settings: pH 7.4
Description: (§2) Test Method Microsomal Stability (Intrinsic Clearance)
(§3) A microsomal stability assay is used to measure in vitro clearance (Clint). The assay involves measuring the rate of disappearance of a compound due to its intrinsic attitude to be metabolized (“intrinsic” meaning that the disappearance is not affected by other properties like permeability, binding etc. that play a role when quantifying in vivo clearance). The microsomal stability (intrinsic clearance, Clint) and thus metabolic stability is generally given as μl/min/mg protein. It can be visualized as the volume of solution that 1 mg of microsomes is able to clear of the compound in one minute.
(§4) A Tecan Genesis workstation (RSP 150/8) was used for to perform the microsomal incubations. Analysis was carried out using a Waters ACQUITY UPLC system coupled to an ABSciex API3000 mass spectrometer. Data analysis was performed using Assay Explorer (Symyx).
(§5) Chemicals • Potassium phosphate buffer: 0.05 M potassium phosphate buffer pH 7.4 containing 1 mM MgCl2 • NADPH (nicotinamide adenine dinucleotide phosphate): 22.5 mg NADPH-Na4 in 1.8 ml potassium phosphate buffer • Acetonitrile: 50 Vol % acetonitrile (1 volume acetonitrile, 1 volume water) • DMSO: 20 Vol % DMSO in water • Stock solution of 20 mg/ml human or mouse liver microsomes (protein)/ml in phosphate buffer
(§6) Stock solution of 10 mM compound in 100% DMSO

[6] = Microsomal stability (intrinsic clearance), human liver microsomes; type: in vitro ADME; settings: pH 7.4
Description: as §2, §3, §4, §5, §6

[7] = test system: Tankyrases; settings: read-out: EC50 [M] TNKS cellular assay; DLD1 cells, 24 hours, Axin2 increase

T1 sequence (P09874 whole entry): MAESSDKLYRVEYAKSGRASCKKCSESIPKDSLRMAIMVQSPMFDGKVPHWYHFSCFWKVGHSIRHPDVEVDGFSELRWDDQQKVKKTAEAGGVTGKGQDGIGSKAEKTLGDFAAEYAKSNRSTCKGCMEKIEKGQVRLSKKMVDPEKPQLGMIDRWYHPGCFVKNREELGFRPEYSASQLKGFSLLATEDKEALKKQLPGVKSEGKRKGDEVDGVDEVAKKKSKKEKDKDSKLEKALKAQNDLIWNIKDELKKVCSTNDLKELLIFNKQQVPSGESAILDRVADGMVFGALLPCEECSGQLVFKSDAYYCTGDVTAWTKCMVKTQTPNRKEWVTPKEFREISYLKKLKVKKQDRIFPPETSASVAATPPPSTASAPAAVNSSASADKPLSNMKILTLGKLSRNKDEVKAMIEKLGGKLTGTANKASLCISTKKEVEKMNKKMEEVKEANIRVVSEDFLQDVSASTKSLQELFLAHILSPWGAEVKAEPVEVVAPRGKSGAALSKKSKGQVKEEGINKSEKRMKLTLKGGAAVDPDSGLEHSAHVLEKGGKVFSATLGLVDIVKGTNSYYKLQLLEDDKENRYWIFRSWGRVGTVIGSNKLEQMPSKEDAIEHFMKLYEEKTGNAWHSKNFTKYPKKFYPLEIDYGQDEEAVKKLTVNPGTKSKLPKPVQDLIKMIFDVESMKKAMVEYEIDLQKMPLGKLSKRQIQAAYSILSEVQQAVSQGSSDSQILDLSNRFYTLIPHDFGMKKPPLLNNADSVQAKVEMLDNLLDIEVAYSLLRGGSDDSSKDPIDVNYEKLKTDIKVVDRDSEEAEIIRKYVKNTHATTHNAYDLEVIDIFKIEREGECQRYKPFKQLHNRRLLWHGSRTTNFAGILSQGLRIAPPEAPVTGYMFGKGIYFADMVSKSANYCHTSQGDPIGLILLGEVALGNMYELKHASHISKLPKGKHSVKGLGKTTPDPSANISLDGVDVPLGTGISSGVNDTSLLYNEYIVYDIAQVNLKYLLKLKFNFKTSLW

Row | SMILES | IC50 [1] | IC50 [2] | IC50 [3] | solubility [4] | microsomal CLint [5] | microsomal CLint [6] | EC50 [7]
1 | COc1ccc(C(=O)C2CCN(C(=O)CCCc3nc4c(cnn4C)c(=O)[nH]3)CC2)cn1 [Compound C43, 6-{4-[4-(6-Methoxy-pyridine-3-carbonyl)-piperidin-1-yl]-4-oxo-butyl}-1-methyl-1,5-dihydro-pyrazolo[3,4-d]pyrimidin-4-one] | 18000 nM | 0.52 nM | 3.5e-10 M | 207 µg/mL (≈ 472 µM) | 36 µL/min/mg | 15 µL/min/mg | 4.3e-09 M
2 | COc1ccc(C(=O)C2CCN(C(=O)CCCc3nc4ccccc4c(=O)[nH]3)CC2)cc1 [Compound A1, 2-{4-[4-(4-methoxy-benzoyl)-piperidin-1-yl]-4-oxo-butyl}-3H-quinazolin-4-one, reference compound] | – | – | – | 18 µg/mL (≈ 41.5 µM) | 120 µL/min/mg | 104 µL/min/mg | 2e-09 M
3 | COc1ccc(C(=O)C2CCN(C(=O)CCCc3nn4cccc4c(=O)[nH]3)CC2)cn1 [Compound C137, 2-{4-[4-(6-Methoxy-pyridine-3-carbonyl)-piperidin-1-yl]-4-oxo-butyl}-3H-pyrrolo[2,1-f][1,2,4]triazin-4-one] | 21000 nM | 1.5 nM | 1e-09 M | 70 µg/mL (≈ 165 µM) | 78 µL/min/mg | 10 µL/min/mg | 1.9e-08 M
4 | COc1ccc(C(=O)C2CCN(C(=O)CCCc3nc4c(F)cc(F)cc4c(=O)[nH]3)CC2)cc1 [Compound A5, 6,8-difluoro-2-{4-[4-(4-methoxy-benzoyl)-piperidin-1-yl]-4-oxo-butyl}-3H-quinazolin-4-one, reference compound] | – | – | – | 5 µg/mL (≈ 10.6 µM) | 86 µL/min/mg | 58 µL/min/mg | 2.6e-09 M
5 | COc1ccc(C(=O)C2CCN(C(=O)CCCc3nc4c(ccn4C)c(=O)[nH]3)CC2)cc1F [Compound C180, 2-{4-[4-(3-Fluoro-4-methoxy-benzoyl)-piperidin-1-yl]-4-oxo-butyl}-7-methyl-3,7-dihydro-pyrrolo[2,3-d]pyrimidin-4-one] | 1900 nM | 0.18 nM | < 1e-10 M | – | – | – | 3.3e-09 M
6 | Cn1ccc2c(=O)[nH]c(CCCC(=O)N3CCC(C(=O)c4ccc(F)c(F)c4)CC3)nc21 [Compound C248, 2-{4-[4-(3,4-Difluoro-benzoyl)-piperidin-1-yl]-4-oxo-butyl}-7-methyl-3,7-dihydro-pyrrolo[2,3-d]pyrimidin-4-one] | 2400 nM | 0.7 nM | 2.3e-10 M | – | – | – | 8.7e-09 M
7 | CC(C)n1cc(C(=O)C2CCN(C(=O)CCCc3nc4c(c(=O)[nH]3)COCC4)CC2)cn1 [Compound C229, 2-{4-[4-(1-Isopropyl-1H-pyrazole-4-carbonyl)-piperidin-1-yl]-4-oxo-butyl}-3,5,7,8-tetrahydro-pyrano[4,3-d]pyrimidin-4-one] | 24000 nM | 23 nM | 2.3e-09 M | – | – | – | 1.6e-06 M
8 | Cc1ccc2c(=O)[nH]c(CCCC(=O)N3CCC(C(=O)c4ccc(F)cc4)CC3)nn12 [Compound C153, 2-{4-[4-(4-Fluoro-benzoyl)-piperidin-1-yl]-4-oxo-butyl}-7-methyl-3H-pyrrolo[2,1-f][1,2,4]triazin-4-one] | 2000 nM | 0.17 nM | 1.6e-10 M | – | – | – | 1.7e-09 M
9 | O=C(CCCc1nn2cccc2c(=O)[nH]1)N1CCC(c2nnc(-c3ccccc3)o2)CC1 [Compound C140, 2-{4-Oxo-4-[4-(5-phenyl-[1,3,4]oxadiazol-2-yl)-piperidin-1-yl]-butyl}-3H-pyrrolo[2,1-f][1,2,4]triazin-4-one] | 3600 nM | 18 nM | 1e-08 M | – | – | – | 1e-07 M
10 | COc1ccc(C(=O)C2CCN(C(=O)CCCc3nc4c(C)csc4c(=O)[nH]3)CC2)cn1 [Compound C126, 2-{4-[4-(6-Methoxypyridine-3-carbonyl)-1-piperidyl]-4-oxo-butyl}-7-methyl-3H-thieno[3,2-d]pyrimidin-4-one] | 560 nM | 0.23 nM | 1.6e-10 M | – | – | – | 1.3e-08 M
